Experimental data: US10421750B2, “Substituted morpholine derivatives having activity against pain” (ESTEVE PHARMACEUTICALS, S.A., priority 2015, dated 2019)

The molecules below were run against human σ1 receptor (Homo sapiens (Human), UniProt Q99720) (assay: Human σ1 receptor radioligand assay ([3H](+)-pentazocine, transfected HEK-293 membranes)). Conditions: binding to the σ1 receptor expressed as Ki, [3H](+)-pentazocine 5 nM.
Procedure: Human σ1 Receptor Radioligand Assay
To investigate binding properties of test compounds to human σ1 receptor, transfected HEK-293 membranes and [^3H](+)-pentazocine (Perkin Elmer, NET-1056), as the radioligand, were used. The assay was carried out with 7 μg of membrane suspension, 5 nM of [^3H](+)-pentazocine in either absence or presence of either buffer or 10 μM Haloperidol for total and non-specific binding, respectively. Binding buffer contained Tris-HCl 50 mM at pH 8. Plates were incubated at 37° C. for 120 minutes. After the incubation period, the reaction mix was then transferred to MultiScreen HTS, FC plates (Millipore), filtered and plates were washed 3 times with ice-cold 10 mM Tris-HCL (pH7.4). Filters were dried and counted at approximately 40% efficiency in a MicroBeta scintillation counter (Perkin-Elmer) using EcoScint liquid scintillation cocktail

human σ1 receptor, sequence (Q99720 whole entry): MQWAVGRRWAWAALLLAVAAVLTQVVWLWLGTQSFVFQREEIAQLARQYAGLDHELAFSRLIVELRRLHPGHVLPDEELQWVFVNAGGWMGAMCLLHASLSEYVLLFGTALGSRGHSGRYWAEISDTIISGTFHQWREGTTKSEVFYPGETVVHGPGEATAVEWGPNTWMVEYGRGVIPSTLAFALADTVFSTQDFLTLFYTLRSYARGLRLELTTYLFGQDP

Compound | Ki
COc1ccc(CN2CC(C3CCN(CCc4ccccc4)CC3)OC3(CC3)C2=O)cc1 (stereo not shown) [Example 1, 7-(4-Methoxybenzyl)-5-(1-phenethylpiperidin-4-yl)4-oxa-7-azaspiro[2.5]octan-8-one] | ≥ 500 nM
O=C(c1ccccc1)N1CC(C2CCN(CCc3ccccc3)CC2)OC2(CC2)C1 (stereo not shown) [Example 2, (5-(1-phenethylpiperidin-4-yl)-4-oxa-7-azaspiro[2.5]octan-7-yl)(phenyl)methanone] | < 500 nM
COc1ccc(CN2CC(C3CCN(Cc4ccccc4)CC3)OC3(CC3)C2=O)cc1 (stereo not shown) [Example 3, 5-(1-Benzylpiperidin-4-yl)-7-(4-methoxybenzyl)-4-oxa-7-azaspiro[2.5]octan-8-one] | < 500 nM
O=C(c1ccccc1)N1CC(C2CCN(Cc3ccccc3)CC2)OC2(CC2)C1 (stereo not shown) [Example 4, (5-(1-benzylpiperidin-4-yl)-4-oxa-7-azaspiro[2.5]octan-7-yl)(phenyl)methanone] | < 100 nM
CCN1CC(C2CCN(Cc3ccccc3)CC2)OC2(CC2)C1=O (stereo not shown) [Example 5, 5-(1-benzylpiperidin-4-yl)-7-ethyl-4-oxa-7-azaspiro[2.5]octan-8-one] | < 100 nM
CCN1CCC(C2CN(Cc3ccc(OC)cc3)C(=O)C3(CC3)O2)CC1 (stereo not shown) [Example 6, 5-(1-ethylpiperidin-4-yl)-7-(4-methoxybenzyl)-4-oxa-7-azaspiro[2.5]octan-8-one] | ≥ 500 nM
CCN1CC(C2CCN(CCc3ccccc3)CC2)OC2(CC2)C1=O (stereo not shown) [Example 7, 7-Ethyl-5-(1-phenethylpiperidin-4-yl)-4-oxa-7-azaspiro[2.5]octan-8-one] | < 500 nM
CC(C)N1CC(C2CCN(CCc3ccccc3)CC2)OC2(CC2)C1=O (stereo not shown) [Example 8, 7-isopropyl-5-(1-phenethylpiperidin-4-yl)-4-oxa-7-azaspiro[2.5]octan-8-one] | < 500 nM
O=C1N(c2ccccc2)CC(C2CCN(CCc3ccccc3)CC2)OC12CC2 (stereo not shown) [Example 9, 5-(1-Phenethylpiperidin-4-yl)-7-phenyl-4-oxa-7-azaspiro[2.5]octan-8-one] | ≥ 500 nM
O=C1N(c2ccccc2)CC(C2CCN(Cc3ccccc3)CC2)OC12CC2 (stereo not shown) [Example 10, 5-(1-benzylpiperidin-4-yl)-7-phenyl-4-oxa-7-azaspiro[2.5]octan-8-one] | < 500 nM
CCN1CC(C2CCN(CCc3ccccc3)CC2)OC2(CC2)C1 (stereo not shown) [Example 11, 7-Ethyl-5-(1-phenethylpiperidin-4-yl)-4-oxa-7-azaspiro[2.5]octane] | < 500 nM
COc1ccc(CN2CC(C3CCN(Cc4ccccc4)CC3)OC3(CC3)C2)cc1 (stereo not shown) [Example 12, 5-(1-benzylpiperidin-4-yl)-7-(4-methoxybenzyl)-4-oxa-7-azaspiro[2.5]octane] | < 100 nM
COc1ccc(CN2CC(C3CCN(CCc4ccccc4)CC3)OC3(CC3)C2)cc1 (stereo not shown) [Example 13, 7-(4-methoxybenzyl)-5-(1-phenethylpiperidin-4-yl)-4-oxa-7-azaspiro[2.5]octane] | ≥ 500 nM
CCN1CC(C2CCN(Cc3ccccc3)CC2)OC2(CC2)C1 (stereo not shown) [Example 14, 5-(1-benzylpiperidin-4-yl)-7-ethyl-4-oxa-7-asazaspiro[2.5]octane] | < 100 nM
COc1ccc(CN2CC(C3CCN(CC(C)C)CC3)OC3(CC3)C2=O)cc1 (stereo not shown) [Example 15, 5-(1-isobutylpiperidin-4-yl)-7-(4-methoxybenzyl)-4-oxa-7-azaspiro[2.5]octan-8-one] | ≥ 500 nM
COc1ccc(CN2CC(C3CCN(CCC(C)C)CC3)OC3(CC3)C2=O)cc1 (stereo not shown) [Example 16, 5-(1-isopentylpiperidin-4-yl)-7-(4-methoxybenzyl)-4-oxa-7-azaspiro[2.5]octan-8-one] | < 500 nM
COc1ccc(CN2CC(C3CCN(Cc4ccccc4)CC3)OCC2=O)cc1 (stereo not shown) [Example 21, 6-(1-benzylpiperidin-4-yl)-4-(4-methoxybenzyl)morpholin-3-one] | < 500 nM
CCN1CC(C2CN(CCC(C)C)C2)OC2(CC2)C1=O (stereo not shown) [Example 22, 7-ethyl-5-(1-isopentylazetidin-3-yl)-4-oxa-7-azaspiro[2.5]octan-8-one] | < 500 nM
CCN1C[C@@H](C2CCN(Cc3ccccc3)CC2)O[C@@H](C)C1=O [Example 23, (2S,6R)-6-(1-benzylpiperidin-4-yl)-4-ethyl-2-methylmorpholin-3-one] | ≥ 500 nM
CCN1C[C@H](C2CCN(Cc3ccccc3)CC2)O[C@@H](C)C1=O [Example 24, (2S,6S)-6-(1-benzylpiperidin-4-yl)-4-ethyl-2-methylmorpholin-3-one] | ≥ 500 nM
CCN1C[C@@H](C2CCN(Cc3ccccc3)CC2)O[C@H](C)C1=O [Example 25, (2R,6R)-6-(1-benzylpiperidin-4-yl)-4-ethyl-2-methylmorpholin-3-one] | ≥ 500 nM
CCN1C[C@H](C2CCN(Cc3ccccc3)CC2)O[C@H](C)C1=O [Example 26, (2R,6S)-6-(1-benzylpiperidin-4-yl)-4-ethyl-2-methylmorpholin-3-one] | ≥ 500 nM

Compound | Ki
CCN1C[C@@H](C2CCN(Cc3ccc(F)cc3)CC2)O[C@@H](C)C1=O [Example 27, (2S,6R)-4-ethyl-6-(1-(4-fluorobenzyl)piperidin-4-yl)-2-methylmorpholin-3-one] | ≥ 500 nM
CCN1C[C@H](C2CCN(Cc3ccc(F)cc3)CC2)O[C@@H](C)C1=O [Example 28, (2S,6S)-4-ethyl-6-(1-(4-fluorobenzyl)piperidin-4-yl)-2-methylmorpholin-3-one] | ≥ 500 nM
CCN1C[C@@H](C2CCN(Cc3ccc(F)cc3)CC2)O[C@H](C)C1=O [Example 29, (2R,6R)-4-ethyl-6-(1-(4-fluorobenzyl)piperidin-4-yl)-2-methylmorpholin-3-one] | ≥ 500 nM
CCN1C[C@H](C2CCN(Cc3ccc(F)cc3)CC2)O[C@H](C)C1=O [Example 30, (2R,6S)-4-ethyl-6-(1-(4-fluorobenzyl)piperidin-4-yl)-2-methylmorpholin-3-one] | ≥ 500 nM
CCN1C[C@@H](C2CCN(Cc3ccc(C#N)cc3)CC2)O[C@@H](C)C1=O [Example 31, 4-((4-((2R,6S)-4-ethyl-6-methyl-5-oxomorpholin-2-yl)piperidin-1-yl)methyl)benzonitrile] | ≥ 500 nM
CCN1C[C@H](C2CCN(Cc3ccc(C#N)cc3)CC2)O[C@@H](C)C1=O [Example 32, 4-((4-((2S,6S)-4-ethyl-6-methyl-5-oxomorpholin-2-yl)piperidin-1-yl)methyl)benzonitrile] | ≥ 500 nM
CCN1C[C@@H](C2CCN(Cc3ccc(C#N)cc3)CC2)O[C@H](C)C1=O [Example 33, 4-((4-((2R,6R)-4-ethyl-6-methyl-5-oxomorpholin-2-yl)piperidin-1-yl)methyl)benzonitrile] | ≥ 500 nM
CCN1C[C@H](C2CCN(Cc3ccc(C#N)cc3)CC2)O[C@H](C)C1=O [Example 34, 4-((4-((2S,6R)-4-ethyl-6-methyl-5-oxomorpholin-2-yl)piperidin-1-yl)methyl)benzonitrile] | ≥ 500 nM
CCN1CC(C2CCN(Cc3ccc(F)cc3)CC2)OC2(CC2)C1=O (stereo not shown) [Example 35, 7-ethyl-5-(1-(4-fluorobenzyl)piperidin-4-yl)-4-oxa-7-azaspiro[2.5]octan-8-one] | ≥ 500 nM
CCN1CC(C2CCN(Cc3ccc(C#N)cc3)CC2)OC2(CC2)C1=O (stereo not shown) [Example 36, 4-((4-(7-ethyl-8-oxo-4-oxa-7-azaspiro[2.5]octan-5-yl)piperidin-1-yl)methyl)benzonitrile] | ≥ 500 nM
CC(C)N1CC(C2CCN(Cc3ccccc3)CC2)OC2(CC2)C1=O (stereo not shown) [Example 37, 5-(1-benzylpiperidin-4-yl)-7-isopropyl-4-oxa-7-azaspiro[2.5]octan-8-one] | ≥ 500 nM
CC(C)N1CC(C2CCN(Cc3ccc(F)cc3)CC2)OC2(CC2)C1=O (stereo not shown) [Example 38, 5-(1-(4-fluorobenzyl)piperidin-4-yl)-7-isopropyl-4-oxa-7-azaspiro[2.5]octan-8-one] | ≥ 500 nM
CC(C)N1CC(C2CCN(Cc3ccc(C#N)cc3)CC2)OC2(CC2)C1=O (stereo not shown) [Example 39, 4-((4-(7-isopropyl-8-oxo-4-oxa-7-azaspiro[2.5]octan-5-yl)piperidin-1-yl)methyl)benzonitrile] | ≥ 500 nM
CCN1CC(C2CCN(CCC(C)C)CC2)OC2(CC2)C1=O (stereo not shown) [Example 40, 7-ethyl-5-(1-isopentylpiperidin-4-yl)-4-oxa-7-azaspiro[2.5]octan-8-one] | < 500 nM
CCN1CC(C2CCN(Cc3ccccc3)CC2)OCC1=O (stereo not shown) [Example 41, 6-(1-benzylpiperidin-4-yl)-4-ethylmorpholin-3-one] | < 100 nM
CCN1CC(C2CN(Cc3ccccc3)C2)OC2(CC2)C1=O (stereo not shown) [Example 42, 5-(1-benzylazetidin-3-yl)-7-ethyl-4-oxa-7-azaspiro[2.5]octan-8-one] | < 500 nM
CCN1CC(C2CN(CCc3ccccc3)C2)OC2(CC2)C1=O (stereo not shown) [Example 43, 7-ethyl-5-(1-phenethylazetidin-3-yl)-4-oxa-7-azaspiro[2.5]octan-8-one] | < 500 nM
CC(C)CCN1CCC(C2CN(c3ccccc3)C(=O)C3(CC3)O2)CC1 (stereo not shown) [Example 44, 5-(1-isopentylpiperidin-4-yl)-7-phenyl-4-oxa-7-azaspiro[2.5]octan-8-one] | < 500 nM
O=C1N(c2ccccc2)CC(C2CN(Cc3ccccc3)C2)OC12CC2 (stereo not shown) [Example 45, 5-(1-benzylazetidin-3-yl)-7-phenyl-4-oxa-7-azaspiro[2.5]octan-8-one] | < 100 nM
COc1ccc(CN2CC(C3CCN(CC(C)C)CC3)OC3(CC3)C2)cc1 (stereo not shown) [Example 46, 5-(1-isobutylpiperidin-4-yl)-7-(4-methoxybenzyl)-4-oxa-7-azaspiro[2.5]octane] | < 500 nM
COc1ccc(CN2CC(C3CCN(CCC(C)C)CC3)OC3(CC3)C2)cc1 (stereo not shown) [Example 47, 5-(1-isopentylpiperidin-4-yl)-7-(4-methoxybenzyl)-4-oxa-7-azaspiro[2.5]octane] | < 100 nM
